Reference: patent US20230150924A1, “NOVEL COMPOUND HAVING CANCER METASTASIS INHIBITORY ACTIVITY, PREPARATION METHOD THEREFOR, AND PHARMACEUTICAL COMPOSITION FOR INHIBITING CANCER METASTASIS AND INVASION OR TREATING COLORECTAL CANCER, COMPRISING COMPOUND” (CELLGENTEK CO., LTD., priority 2019, published 2023)

Assays:
[1] = test system: invasion of colorectal cancer cells; experiment: In vivo relative invation (invasion; EV and KITENIN controls, no method described); conditions: relative to EV (=1); KIT = KITENIN
KAI1 promoter = KAI1 promoter luciferase reporter assay in transfected Caco2 cells; type: cell-based, human; conditions: 1 μM compound, 16 hours, transfected Caco2 cells, luciferase activity relative to DMSO control (=1); for fold induction at 1 µM: Homo sapiens, Caco-2, 16 h, read-out: Relative KAI promoter activity
Procedure: Experiments were conducted to evaluate the metastasis-related promoter activity-increasing effects of the compounds according to the present invention. Specifically, the KAI1 promoter reporter vector was used. In this case, the pRL-TK vector, a vector expressing renilla luciferase, was used as an internal control indicating the transfection efficiency in each transfected well.
First, 24 hours before transfection, 2×10^6 human colon cancer cell line, Caco2) cells were cultured in 10 ml of DMEM containing 10% FBS and 1% penicillin/streptomycin on a 100-mm-diameter plate, and then transformed with 5 μg of a pRL-TK vector mixture containing a transfection reagent and the KAI1 promoter, and then cultured in a 5% CO2 incubator at 37° C. for 48 hours. Thereafter, the adherent cells were detached using trypsin and counted using a hemacytometer, and then 5×10^3 transfected Caco2 cells in 100 μl of DMEM containing 10% FBS and 1% penicillin/streptomycin were seeded into each well of a 96-well plate and cultured in a 5% CO2 incubator at 37° C. for 24 hours. Next, 1 μM of each of the 305 compounds prepared in Examples 1 to 305 was added to each well, and after 16 hours, 100 μl of a lysis buffer for analysis containing a luciferase substrate was added, and the cells were lysed with stirring for 20 minutes. After completion of lysis, the cells were measured for luciferase activity using a luciferase reporter assay system (Promega, USA). […] In addition, data were analyzed at a significance level of p<0.05 by one-way ANOVA (Tukey's HSD), and SPSS 17.0 (Chicago, USA) statistical program was used. In Table 14 to 20, PHA is the PHA-665752, and KIT is KITENIN.

SMILES	In vivo relative invation [1]	fold induction at 1 µM (KAI1 promoter)	Relative KAI promoter activity (KAI1 promoter)
O=C(CNC(=O)c1ccc(OC(F)(F)F)cc1)c1ccc(Cl)cc1 [Example 81, N-(2-(4-chlorophenyl)-2-oxoethyl)-4-(trifluoromethoxy)benzamide]	1.142	0.8	–
O=C(CNC(=O)c1cccc(OC(F)(F)F)c1)c1ccc(Cl)cc1 [Example 82, N-(2-(4-chlorophenyl)-2-oxoethyl)-3-(trifluoromethoxy)benzamide]	1.189	0.8	–
Cc1cc(C)cc(C(=O)NCC(=O)c2ccc(Cl)cc2)c1 [Example 83, N-(2-(4-chlorophenyl)-2-oxoethyl)-3,5-dimethylbenzamide]	1.171	0.8	–
O=C(CNC(=O)c1ccccc1OC(F)(F)F)c1ccc(Cl)cc1 [Example 84, N-(2-(4-chlorophenyl)-2-oxoethyl)-2-(trifluoromethoxy)benzamide]	1.181	0.94	–
COc1cc(OC)cc(C(=O)NCC(=O)c2ccc(Cl)cc2)c1 [Example 85, N-(2-(4-chlorophenyl)-2-oxoethyl)-3,5imethoxybenzamide]	1.206	0.96	–
O=C(CNC(=O)c1ccc(-c2ccccc2)cc1)c1ccc(Cl)cc1 [Example 86, N-(2-(4-chlorophenyl)-2-oxoethyl)-[1,1′-biphenyl]-4-carboxamide]	1.193	1.01	–
O=C(CNC(=O)c1ccc(Cl)cc1)c1ccc(Cl)cc1 [Example 87, 4-chloro-N-(2-(4-chlorophenyl)-2-oxoethyl)benzamide]	1.218	0.91	–
CN(C)c1ccc(C(=O)CNC(=O)c2ccc(Cl)cc2)cc1 [Example 88, 4-chloro-N-(2-(4-(dimethylamino)phenyl)-2-oxoethyl)benzamide]	0.9216	1.35	–
CC(Oc1ccccc1)C(=O)NCC(=O)c1ccc(N(C)C)cc1 (stereo not drawn) [Example 89, N-(2-(4-(dimethylamino)phenyl)-2-oxoethyl)-2-phenoxypropanamide]	1.074	1.27	–
CN(C)c1ccc(C(=O)CNC(=O)c2ccccc2F)cc1 [Example 90, N-(2-(4-(dimethylamino)phenyl)-2-oxoethyl)-2-fluorobenzamide]	1.124	1.88	–
CN(C)c1ccc(C(=O)CNC(=O)c2ccc(F)cc2)cc1 [Example 91, N-(2-(4-(dimethylamino)phenyl)-2-oxoethyl)-4-fluorobenzamide]	1.058	2.44	–
CN(C)c1ccc(C(=O)CNC(=O)c2ccco2)cc1 [Example 92, N-(2-(4-(dimethylamino)phenyl)-2-oxoethyl)furan-2-carboxamide]	1.064	2.29	–
CN(C)c1ccc(C(=O)CNC(=O)c2ccccc2Cl)cc1 [Example 93, 2-chloro-N-(2-(4-(dimethylamino)phenyl)-2-oxoethyl)benzamide]	1.091	2.48	–
CN(C)c1ccc(C(=O)CNC(=O)c2cccc(Cl)c2)cc1 [Example 94, 3-chloro-N-(2-(4-(dimethylamino)phenyl)-2-oxoethyl)benzamide]	1.096	1.81	–
C=CC(=O)NCC(=O)c1ccc(N(C)C)cc1 [Example 95, N-(2-(4-(dimethylamino)phenyl)-2-oxoethyl)acrylamide]	1.16	1.21	–
Cc1ccccc1C(=O)NCC(=O)c1ccc(N(C)C)cc1 [Example 96, N-(2-(4-(dimethylamino)phenyl)-2-oxoethyl)-2-methylbenzamide]	1.141	2.23	–
COc1ccc(C(=O)NCC(=O)c2ccc(N(C)C)cc2)cc1 [Example 97, N-(2-(4-(dimethylamino)phenyl)-2-oxoethyl)-4-methoxybenzamide]	1.024	1.8	–
Cc1cccc(C(=O)NCC(=O)c2ccc(N(C)C)cc2)c1 [Example 98, N-(2-(4-(dimethylamino)phenyl)-2-oxoethyl)-3-methylbenzamide]	1.121	2.64	–

SMILES	In vivo relative invation [1]	fold induction at 1 µM (KAI1 promoter)	Relative KAI promoter activity (KAI1 promoter)
CCC(=O)NCC(=O)c1ccc(N(C)C)cc1 [Example 99, N-(2-(4-(dimethylamino)phenyl)-2-oxoethyl)propionamide]	1.134	1.71	–
CN(C)c1ccc(C(=O)CNC(=O)C2CC2)cc1 [Example 100, N-(2-(4-(dimethylamino)phenyl)-2-oxoethyl)cyclopropanecarboxamide]	1.094	1.62	–
CN(C)c1ccc(C(=O)CNC(=O)c2cccs2)cc1 [Example 101, N-(2-(4-(dimethylamino)phenyl)-2-oxoethyl)thiophene-2-carboxamide]	0.8815	3.04	–
CN(C)c1ccc(C(=O)CNC(=O)CC(C)(C)C)cc1 [Example 102, N-(2-(4-(dimethylamino)phenyl)-2-oxoethyl)-3,3-dimethylbutanamide]	1.121	2.53	–
CCCCC(=O)NCC(=O)c1ccc(N(C)C)cc1 [Example 103, N-(2-(4-(dimethylamino)phenyl)-2-oxoethyl)pentanamide]	1.172	1.7	–
COc1ccc(C(=O)NCC(=O)c2ccc(N(C)C)cc2)cc1 [Example 104, N-(2-(4-(dimethylamino)phenyl)-2-oxoethyl)-4-methoxybenzamide]	1.115	–	1.78
CN(C)c1ccc(C(=O)CNC(=O)c2ccc(F)cc2F)cc1 [Example 105, N-(2-(4-(dimethylamino)phenyl)-2-oxoethyl)-2,4ifluorobenzamide]	1.079	1.25	–
COCC(=O)NCC(=O)c1ccc(N(C)C)cc1 [Example 106, N-(2-(4-(dimethylamino)phenyl)-2-oxoethyl)-2-methoxyacetamide]	1.171	2.44	–
CN(C)c1ccc(C(=O)CNS(=O)(=O)c2ccc(F)cc2)cc1 [Example 107, N-(2-(4-(dimethylamino)phenyl)-2-oxoethyl)-4-fluorobenzenesulfonamide]	0.9868	2.07	–
CN(C)c1ccc(C(=O)CNS(=O)(=O)c2ccc(Cl)cc2)cc1 [Example 108, 4-chloro-N-(2-(4-(dimethylamino)phenyl)-2-oxoethyl)benzenesulfonamide]	0.989	1.36	–
CN(C)c1ccc(C(=O)CNS(=O)(=O)c2ccccc2)cc1 [Example 109, N-(2-(4-(dimethylamino)phenyl)-2-oxoethyl)benzenesulfonamide]	0.9054	2.89	–
CN(C)c1ccc(C(=O)CNS(=O)(=O)Cc2ccccc2)cc1 [Example 110, N-(2-(4-(dimethylamino)phenyl)-2-oxoethyl)-1-phenylmethanesulfonamide]	1.009	1.49	–
COc1ccc(S(=O)(=O)NCC(=O)c2ccc(N(C)C)cc2)cc1 [Example 111, N-(2-(4-(dimethylamino)phenyl)-2-oxoethyl)-4-methoxybenzenesulfonamide]	1.065	1.44	–
CN(C)c1ccc(C(=O)CNC(=O)c2ccccc2C(F)(F)F)cc1 [Example 112, N-(2-(4-(dimethylamino)phenyl)-2-oxoethyl)-2-(trifluoromethyl)benzamide]	0.9835	2.82	–
CN(C)c1ccc(C(=O)CNC(=O)c2cccc(C(F)(F)F)c2)cc1 [Example 113, N-(2-(4-(dimethylamino)phenyl)-2-oxoethyl)-3-(trifluoromethyl)benzamide]	1.167	1.4	–
CN(C)c1ccc(C(=O)CNC(=O)c2ccc(C(F)(F)F)cc2)cc1 [Example 114, N-(2-(4-(dimethylamino)phenyl)-2-oxoethyl)-4-(trifluoromethyl)benzamide]	1.197	1.38	–
CN(C)c1ccc(C(=O)CNC(=O)c2ccc(F)cc2Cl)cc1 [Example 115, 2-chloro-N-(2-(4-(dimethylamino)phenyl)-2-oxoethyl)-4-fluorobenzamide]	1.209	2.04	–
CN(C)c1ccc(C(=O)CNC(=O)c2ccc(F)c(F)c2)cc1 [Example 116, N-(2-(4-(dimethylamino)phenyl)-2-oxoethyl)-3,4ifluorobenzamide]	1.164	2.15	–
